Measured values: ChEMBL document CHEMBL1154782, “Discovery of Trp-His and His-Arg analogues as new structural classes of short antimicrobial peptides” (J Med Chem, 2009)
Converted amounts (≈) assume the structure as drawn. Where a SMILES comes first, the peptide text is derived from it.

Tests used:
Staphylococcus aureus [1] = experiment: Antibacterial activity against methicillin-resistant Staphylococcus aureus DSM 50128509 after 15 to 18 hrs under aerobic condition by modified broth microdilution method; assay type: functional
Staphylococcus aureus [2] = experiment: Antibacterial activity against methicillin-resistant Staphylococcus aureus DSM 50128509; assay type: functional, organism-based
[3] = test system: Staphylococcus epidermidis; experiment: Antibacterial activity against methicillin-resistant Staphylococcus epidermidis DSM 50160384 after 15 to 18 hrs under aerobic condition by modified broth microdilution method; assay type: functional
[4] = test system: Staphylococcus epidermidis; experiment: Antibacterial activity against methicillin-resistant Staphylococcus epidermidis DSM 50160384; assay type: functional, organism-based
Escherichia coli [5] = experiment: Antibacterial activity against Escherichia coli ATCC 35218 after 15 to 18 hrs under aerobic condition by modified broth microdilution method; assay type: functional
Escherichia coli [6] = experiment: Antibacterial activity against Escherichia coli ATCC 35218; assay type: functional, organism-based
Klebsiella pneumoniae [7] = experiment: Antibacterial activity against Klebsiella pneumoniae ATCC 700603 after 15 to 18 hrs under aerobic condition by modified broth microdilution method; assay type: functional
Klebsiella pneumoniae [8] = experiment: Antibacterial activity against Klebsiella pneumoniae ATCC 700603; assay type: functional, organism-based
Pseudomonas aeruginosa [9] = experiment: Antibacterial activity against Pseudomonas aeruginosa ATCC 9027 after 15 to 18 hrs under aerobic condition by modified broth microdilution method; assay type: functional
Candida albicans [10] = experiment: Antifungal activity against Candida albicans ATCC 10231 after 15 to 18 hrs under aerobic condition by modified broth microdilution method; assay type: functional
Candida albicans [11] = experiment: Antifungal activity against Candida albicans ATCC 10231; assay type: functional, organism-based
L929 = experiment: Cytotoxicity against mouse L929 cells up to 200 ug/mL after 5 days by MTT assay; assay type: cell-based; conditions: l929, 120 h
Pseudomonas aeruginosa [12] = experiment: Antibacterial activity against Pseudomonas aeruginosa ATCC 9027; assay type: functional, organism-based

SMILES	MIC (Staphylococcus aureus [1])	IC50 (Staphylococcus aureus [2])	MIC [3]	IC50 [4]	MIC (Escherichia coli [5])	IC50 (Escherichia coli [6])	MIC (Klebsiella pneumoniae [7])	IC50 (Klebsiella pneumoniae [8])	MIC (Pseudomonas aeruginosa [9])	MIC (Candida albicans [10])	IC50 (Candida albicans [11])	Activity (L929)	IC50 (Pseudomonas aeruginosa [12])
N=C(N)NCCC[C@H](NC(=O)[C@@H](N)Cc1c[nH]c(C23CC4CC(CC(C4)C2)C3)n1)C(=O)NCc1ccccc1	5 µg/mL (≈ 9.35 µM)	2.15 µg/mL (≈ 4.02 µM)	10 µg/mL (≈ 18.7 µM)	1.19 µg/mL (≈ 2.23 µM)	200 µg/mL (≈ 374 µM)	9.29 µg/mL (≈ 17.4 µM)	100 µg/mL (≈ 187 µM)	16.1 µg/mL (≈ 30.2 µM)	> 200 µg/mL	50 µg/mL (≈ 93.5 µM)	7.46 µg/mL (≈ 14 µM)	Non-toxic	–
COC(=O)[C@H](Cc1c[nH]c(C2CCCCC2)n1)NC(=O)[C@@H](N)Cc1c[nH]c2ccccc12	100 µg/mL (≈ 229 µM)	10.1 µg/mL (≈ 23.1 µM)	200 µg/mL (≈ 457 µM)	12.5 µg/mL (≈ 28.5 µM)	> 200 µg/mL	–	200 µg/mL (≈ 457 µM)	29.4 µg/mL (≈ 67.1 µM)	> 200 µg/mL	> 200 µg/mL	–	Non-toxic	–
COC(=O)[C@H](CCCNC(=N)N)NC(=O)[C@@H](N)Cc1c[nH]c(C2CCC2)n1	200 µg/mL (≈ 527 µM)	9.28 µg/mL (≈ 24.5 µM)	100 µg/mL (≈ 264 µM)	6.66 µg/mL (≈ 17.6 µM)	200 µg/mL (≈ 527 µM)	15.3 µg/mL (≈ 40.3 µM)	> 200 µg/mL	–	> 200 µg/mL	200 µg/mL (≈ 527 µM)	14 µg/mL (≈ 36.8 µM)	Non-toxic	–
COC(=O)[C@H](CCCNC(=N)N)NC(=O)[C@H](Cc1c[nH]c(C2CCC2)n1)NC(=O)OC(C)(C)C	> 200 µg/mL	–	> 200 µg/mL	–	200 µg/mL (≈ 417 µM)	18.1 µg/mL (≈ 37.8 µM)	200 µg/mL (≈ 417 µM)	15 µg/mL (≈ 31.2 µM)	> 200 µg/mL	> 200 µg/mL	–	Non-toxic	–
N[C@@H](Cc1c[nH]c2ccccc12)C(=O)N[C@@H](Cc1c[nH]c(C23CC4CC(CC(C4)C2)C3)n1)C(=O)NCc1ccccc1	100 µg/mL (≈ 177 µM)	16 µg/mL (≈ 28.3 µM)	50 µg/mL (≈ 88.5 µM)	4.7 µg/mL (≈ 8.32 µM)	200 µg/mL (≈ 354 µM)	21.3 µg/mL (≈ 37.8 µM)	200 µg/mL (≈ 354 µM)	32 µg/mL (≈ 56.6 µM)	> 200 µg/mL	50 µg/mL (≈ 88.5 µM)	8.25 µg/mL (≈ 14.6 µM)	Non-toxic	–
N[C@@H](Cc1c[nH]c2ccccc12)C(=O)N[C@@H](Cc1c[nH]c(C2CCC2)n1)C(=O)NCc1ccccc1	100 µg/mL (≈ 206 µM)	27.1 µg/mL (≈ 55.9 µM)	50 µg/mL (≈ 103 µM)	8.51 µg/mL (≈ 17.6 µM)	200 µg/mL (≈ 413 µM)	22.5 µg/mL (≈ 46.4 µM)	> 200 µg/mL	–	> 200 µg/mL	100 µg/mL (≈ 206 µM)	10.3 µg/mL (≈ 21.3 µM)	Non-toxic	–
CC(C)c1nc(C[C@H](N)C(=O)N[C@@H](CCCNC(=N)N)C(=O)NCc2ccccc2)c[nH]1	100 µg/mL (≈ 226 µM)	4.85 µg/mL (≈ 11 µM)	200 µg/mL (≈ 452 µM)	12.8 µg/mL (≈ 28.8 µM)	> 200 µg/mL	–	> 200 µg/mL	–	200 µg/mL (≈ 452 µM)	> 200 µg/mL	–	Non-toxic	27.8 µg/mL (≈ 62.7 µM)
CC(C)(C)OC(=O)N[C@@H](Cc1c[nH]c(C23CC4CC(CC(C4)C2)C3)n1)C(=O)N[C@@H](CCCNC(=N)N)C(=O)NCc1ccccc1	20 µg/mL (≈ 31.5 µM)	7.47 µg/mL (≈ 11.8 µM)	100 µg/mL (≈ 158 µM)	11.5 µg/mL (≈ 18.1 µM)	> 200 µg/mL	–	100 µg/mL (≈ 158 µM)	15.1 µg/mL (≈ 23.8 µM)	100 µg/mL (≈ 158 µM)	> 200 µg/mL	–	Non-toxic	27.2 µg/mL (≈ 42.9 µM)
O=C(O)c1cn(C2CC2)c2cc(N3CCNCC3)c(F)cc2c1=O [CIPROFLOXACIN]	–	–	–	–	–	–	–	–	–	–	–	–	1.18 µg/mL (≈ 3.56 µM)
COC(=O)[C@H](Cc1c[nH]cn1)NC(=O)[C@@H](N)Cc1c[nH]c2ccccc12 (H-Trp-His-OMe)	> 200 µg/mL	–	> 200 µg/mL	–	200 µg/mL (≈ 563 µM)	18.5 µg/mL (≈ 52.1 µM)	> 200 µg/mL	–	> 200 µg/mL	200 µg/mL (≈ 563 µM)	20.6 µg/mL (≈ 58 µM)	Non-toxic	–
COC(=O)[C@H](Cc1c[nH]c(C23CC4CC(CC(C4)C2)C3)n1)NC(=O)[C@H](Cc1c[nH]c2ccccc12)NC(=O)OC(C)(C)C	20 µg/mL (≈ 33.9 µM)	1.69 µg/mL (≈ 2.87 µM)	50 µg/mL (≈ 84.8 µM)	4.03 µg/mL (≈ 6.83 µM)	100 µg/mL (≈ 170 µM)	6.59 µg/mL (≈ 11.2 µM)	> 200 µg/mL	–	> 200 µg/mL	200 µg/mL (≈ 339 µM)	26.6 µg/mL (≈ 45.1 µM)	Non-toxic	–
COC(=O)[C@H](Cc1c[nH]c(C(C)C)n1)NC(=O)[C@@H](N)Cc1c[nH]c2ccccc12	200 µg/mL (≈ 503 µM)	13.1 µg/mL (≈ 33 µM)	> 200 µg/mL	–	200 µg/mL (≈ 503 µM)	12.2 µg/mL (≈ 30.7 µM)	> 200 µg/mL	–	> 200 µg/mL	200 µg/mL (≈ 503 µM)	15.6 µg/mL (≈ 39.3 µM)	Non-toxic	–
